In ChEMBL document CHEMBL4725292 (J Med Chem, 2020):
Active and inactive are the calls of the source. The calls are words filed in the database; no cut-off is given here.

Legend:
[1] = Intrinsic clearance in rat hepatocytes at 0.5 uM measured up to 60 mins by LC-MS/MS analysis; format: ADME, cell-based, Hepatocyte; conditions: 1 h
[2] = Inhibition of LPS-induced MCP1 production in PBMC (unknown origin); format: functional, tissue-based
THP-1 = assay: Antiproliferative activity against human THP-1 cells after 72 hrs by cell titer glo assay; format: functional, cell-based; conditions: THP-1, 72 h
[3] = molecular target: T1, Bromodomain testis-specific protein (Homo sapiens, UniProt Q58F21); assay: Binding affinity to full length BRDT BD1 in human HuT78 cell lysates incubated for 45 mins by liquid chromatography-mass spectrometry based chemoproteomic binding assay; format: subcellular
[4] = molecular target: T2, Bromodomain-containing protein 3 (Homo sapiens, UniProt Q15059); assay: Binding affinity to full length BRD3 BD2 in human HuT78 cell lysates incubated for 45 mins by liquid chromatography-mass spectrometry based chemoproteomic binding assay; format: subcellular
Blood [5] = assay: Inhibition of LPS-induced IL6 production in human whole blood preincubated for 30 mins followed by LPS addition and measured after overnight incubation by mesoscale assay; format: functional, tissue-based
[6] = molecular target: T3, ATPase family AAA domain-containing protein 2 (Homo sapiens, UniProt Q6PL18); assay: Binding affinity to human partial length ATAD2A (Q981 to R1108 residues) expressed in bacterial expression system by BROMOscan assay
T3 sequence (Q6PL18 whole entry): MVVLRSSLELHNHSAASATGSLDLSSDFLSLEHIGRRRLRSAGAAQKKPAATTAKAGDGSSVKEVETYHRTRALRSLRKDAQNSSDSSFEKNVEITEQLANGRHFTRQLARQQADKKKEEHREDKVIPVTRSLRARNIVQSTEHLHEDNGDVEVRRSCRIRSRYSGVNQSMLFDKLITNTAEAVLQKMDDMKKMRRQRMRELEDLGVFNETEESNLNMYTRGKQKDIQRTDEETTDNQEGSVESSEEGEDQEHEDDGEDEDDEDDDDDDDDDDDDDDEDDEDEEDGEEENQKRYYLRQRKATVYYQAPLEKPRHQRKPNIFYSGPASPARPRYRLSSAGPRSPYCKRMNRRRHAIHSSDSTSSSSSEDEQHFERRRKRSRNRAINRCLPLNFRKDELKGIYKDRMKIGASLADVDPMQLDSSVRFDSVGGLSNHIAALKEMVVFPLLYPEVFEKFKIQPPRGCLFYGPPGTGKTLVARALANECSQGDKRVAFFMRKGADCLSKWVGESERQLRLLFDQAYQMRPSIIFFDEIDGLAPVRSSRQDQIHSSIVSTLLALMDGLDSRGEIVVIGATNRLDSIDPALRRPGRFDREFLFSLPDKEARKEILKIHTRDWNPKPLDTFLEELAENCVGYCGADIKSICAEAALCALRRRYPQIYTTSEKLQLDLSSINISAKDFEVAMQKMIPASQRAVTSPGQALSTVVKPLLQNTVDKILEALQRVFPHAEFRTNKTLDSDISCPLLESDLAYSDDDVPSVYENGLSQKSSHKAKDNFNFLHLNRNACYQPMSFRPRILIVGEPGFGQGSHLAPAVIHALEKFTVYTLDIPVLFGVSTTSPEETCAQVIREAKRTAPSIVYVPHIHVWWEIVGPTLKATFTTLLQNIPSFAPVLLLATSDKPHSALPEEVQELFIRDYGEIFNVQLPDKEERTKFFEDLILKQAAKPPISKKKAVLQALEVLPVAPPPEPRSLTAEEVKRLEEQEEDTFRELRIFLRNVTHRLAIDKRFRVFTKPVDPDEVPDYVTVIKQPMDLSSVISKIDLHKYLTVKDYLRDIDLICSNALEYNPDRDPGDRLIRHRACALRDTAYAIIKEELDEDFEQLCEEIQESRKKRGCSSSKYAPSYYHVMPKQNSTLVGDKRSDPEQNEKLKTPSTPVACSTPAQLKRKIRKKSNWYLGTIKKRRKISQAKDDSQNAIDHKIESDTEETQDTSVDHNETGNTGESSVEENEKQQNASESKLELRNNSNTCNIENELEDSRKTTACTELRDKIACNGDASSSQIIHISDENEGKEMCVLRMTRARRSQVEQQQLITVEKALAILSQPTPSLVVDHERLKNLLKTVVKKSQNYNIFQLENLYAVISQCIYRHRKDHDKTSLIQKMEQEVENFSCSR

[7] = molecular target: T1, Bromodomain testis-specific protein; assay: Binding affinity to human partial length BRDT bromodomain 2 (K250 to E382 residues) expressed in bacterial expression system by bromoscan assay
[8] = molecular target: T2, Bromodomain-containing protein 3; assay: Binding affinity to full length BRD3 BD1 in human HuT78 cell lysates incubated for 45 mins by liquid chromatography-mass spectrometry based chemoproteomic binding assay; format: subcellular
Blood [9] = assay: Inhibition of LPS-induced MCP1 production in human whole blood preincubated for 30 mins followed by LPS addition and measured after overnight incubation by mesoscale assay; format: functional, tissue-based
[10] = molecular target: Transcription initiation factor TFIID subunit 1-like (Homo sapiens, UniProt Q8IZX4); assay: Binding affinity to human partial length TAF1L bromodomain 2 (Q1523 to D1654 residues) expressed in bacterial expression system by BROMOscan assay
[11] = molecular target: T4, Bromodomain-containing protein 2 (Homo sapiens, UniProt P25440); assay: Binding affinity to human partial length BRD2 bromodomain 2 isoform 1 (E348 to D455 residues) expressed in bacterial expression system by BROMOscan assay
[12] = molecular target: T1, Bromodomain testis-specific protein; assay: Binding affinity to human partial length BRDT bromodomain 1 (N21 to E137 residues) expressed in bacterial expression system by bromoscan assay
B cell [13] = assay: Downregulation of IL-17A secretion in human B cells cocultured with human PBMC at 0.37 to 10 uM preincubated for 1 hr followed by anti-IgM and TCR stimulation and measured after 84 hrs by ELISA; format: functional, cell-based; conditions: dose microM 0.37-10, time 1.0 hrs
[14] = molecular target: T1, Bromodomain testis-specific protein; assay: Binding affinity to full length BRDT BD2 in human HuT78 cell lysates incubated for 45 mins by liquid chromatography-mass spectrometry based chemoproteomic binding assay; format: subcellular
B cell [15] = assay: Downregulation of IL-2 secretion in human B cells cocultured with human PBMC at 0.37 to 10 uM preincubated for 1 hr followed by anti-IgM and TCR stimulation and measured after 84 hrs by ELISA; format: functional, cell-based; conditions: dose microM 0.37-10, time 1.0 hrs
[16] = molecular target: T4, Bromodomain-containing protein 2; assay: Binding affinity to human partial length BRD2 bromodomain 1 long isoform (K71 to N194 residues) expressed in bacterial expression system by BROMOscan assay
[17] = molecular target: T2, Bromodomain-containing protein 3; assay: Binding affinity to human partial length BRD3 bromodomain 1 (P24 to E144 residues) expressed in bacterial expression system by BROMOscan assay
[18] = molecular target: Transcription initiation factor TFIID subunit 1 (Homo sapiens, UniProt P21675); assay: Displacement of AlexaFluor 488-labelled BD-AF488 from TAF1 BD2 (unknown origin) incubated for 15 mins by TR-FRET assay
Transcription initiation factor TFIID subunit 1, sequence (P21675 whole entry): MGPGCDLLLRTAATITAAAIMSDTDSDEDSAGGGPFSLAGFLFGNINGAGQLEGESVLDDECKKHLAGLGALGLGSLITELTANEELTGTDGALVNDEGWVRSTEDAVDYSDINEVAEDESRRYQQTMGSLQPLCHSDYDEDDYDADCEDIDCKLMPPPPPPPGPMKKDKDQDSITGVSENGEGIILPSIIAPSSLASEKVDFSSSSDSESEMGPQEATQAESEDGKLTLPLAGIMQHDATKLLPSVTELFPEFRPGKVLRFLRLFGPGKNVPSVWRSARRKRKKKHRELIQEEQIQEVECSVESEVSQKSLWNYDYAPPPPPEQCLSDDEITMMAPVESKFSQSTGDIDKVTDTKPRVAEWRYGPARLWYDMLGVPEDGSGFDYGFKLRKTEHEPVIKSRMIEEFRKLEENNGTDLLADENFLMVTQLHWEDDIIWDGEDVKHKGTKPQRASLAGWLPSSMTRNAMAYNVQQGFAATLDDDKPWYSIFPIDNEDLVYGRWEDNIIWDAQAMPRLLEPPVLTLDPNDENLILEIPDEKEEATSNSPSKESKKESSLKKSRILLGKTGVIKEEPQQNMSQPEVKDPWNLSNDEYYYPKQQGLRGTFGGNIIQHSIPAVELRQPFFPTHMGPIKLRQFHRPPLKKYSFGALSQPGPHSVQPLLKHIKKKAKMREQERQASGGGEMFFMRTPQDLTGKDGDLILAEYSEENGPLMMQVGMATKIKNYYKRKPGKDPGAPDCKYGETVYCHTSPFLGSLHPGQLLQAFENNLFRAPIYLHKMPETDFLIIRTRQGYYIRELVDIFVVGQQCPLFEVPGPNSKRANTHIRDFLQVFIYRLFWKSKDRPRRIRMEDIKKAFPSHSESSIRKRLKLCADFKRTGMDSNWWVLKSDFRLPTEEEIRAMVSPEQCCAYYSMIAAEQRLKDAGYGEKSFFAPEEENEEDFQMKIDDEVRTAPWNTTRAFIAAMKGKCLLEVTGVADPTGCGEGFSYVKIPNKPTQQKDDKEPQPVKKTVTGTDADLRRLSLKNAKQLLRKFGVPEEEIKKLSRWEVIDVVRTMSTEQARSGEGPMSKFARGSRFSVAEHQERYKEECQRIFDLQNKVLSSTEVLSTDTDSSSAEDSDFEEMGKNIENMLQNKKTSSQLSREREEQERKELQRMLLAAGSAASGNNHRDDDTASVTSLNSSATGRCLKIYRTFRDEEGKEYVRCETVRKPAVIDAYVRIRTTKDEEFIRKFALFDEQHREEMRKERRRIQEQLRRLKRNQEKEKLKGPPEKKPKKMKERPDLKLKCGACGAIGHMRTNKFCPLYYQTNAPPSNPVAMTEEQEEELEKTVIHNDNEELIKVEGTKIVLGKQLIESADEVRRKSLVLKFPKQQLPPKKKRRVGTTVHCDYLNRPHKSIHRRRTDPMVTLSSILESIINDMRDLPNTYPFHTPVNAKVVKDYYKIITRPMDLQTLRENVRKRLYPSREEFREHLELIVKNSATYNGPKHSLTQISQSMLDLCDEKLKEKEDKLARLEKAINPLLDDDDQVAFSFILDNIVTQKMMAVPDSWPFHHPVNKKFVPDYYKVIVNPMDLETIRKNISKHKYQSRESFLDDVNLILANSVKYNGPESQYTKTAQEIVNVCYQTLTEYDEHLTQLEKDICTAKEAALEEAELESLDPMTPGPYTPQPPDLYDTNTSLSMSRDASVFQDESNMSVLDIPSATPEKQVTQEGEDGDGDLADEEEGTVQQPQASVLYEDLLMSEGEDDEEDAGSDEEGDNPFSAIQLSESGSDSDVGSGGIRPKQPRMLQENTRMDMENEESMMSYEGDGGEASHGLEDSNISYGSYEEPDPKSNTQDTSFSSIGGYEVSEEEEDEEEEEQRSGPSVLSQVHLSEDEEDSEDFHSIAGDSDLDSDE

T2 sequence (Q15059 whole entry): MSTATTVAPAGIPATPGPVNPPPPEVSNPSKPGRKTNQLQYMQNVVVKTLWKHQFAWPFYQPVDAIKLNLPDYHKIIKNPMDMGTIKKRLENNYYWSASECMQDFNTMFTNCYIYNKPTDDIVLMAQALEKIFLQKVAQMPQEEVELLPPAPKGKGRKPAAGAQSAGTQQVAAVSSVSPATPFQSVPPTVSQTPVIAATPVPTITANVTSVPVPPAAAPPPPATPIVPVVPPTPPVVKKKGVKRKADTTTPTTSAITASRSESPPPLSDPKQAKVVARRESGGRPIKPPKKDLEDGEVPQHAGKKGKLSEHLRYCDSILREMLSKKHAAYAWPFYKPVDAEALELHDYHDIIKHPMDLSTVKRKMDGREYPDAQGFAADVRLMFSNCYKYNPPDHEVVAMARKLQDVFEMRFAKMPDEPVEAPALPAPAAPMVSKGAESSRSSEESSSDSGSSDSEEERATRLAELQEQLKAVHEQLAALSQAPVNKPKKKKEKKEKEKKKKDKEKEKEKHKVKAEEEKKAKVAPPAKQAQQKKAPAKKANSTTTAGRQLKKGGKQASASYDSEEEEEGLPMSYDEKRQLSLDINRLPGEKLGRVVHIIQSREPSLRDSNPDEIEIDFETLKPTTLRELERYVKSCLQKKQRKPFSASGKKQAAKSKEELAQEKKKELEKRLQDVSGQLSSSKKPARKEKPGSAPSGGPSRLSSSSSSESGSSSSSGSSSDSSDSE
T4 sequence (P25440 whole entry, the tested form may be a part, canonical isoform): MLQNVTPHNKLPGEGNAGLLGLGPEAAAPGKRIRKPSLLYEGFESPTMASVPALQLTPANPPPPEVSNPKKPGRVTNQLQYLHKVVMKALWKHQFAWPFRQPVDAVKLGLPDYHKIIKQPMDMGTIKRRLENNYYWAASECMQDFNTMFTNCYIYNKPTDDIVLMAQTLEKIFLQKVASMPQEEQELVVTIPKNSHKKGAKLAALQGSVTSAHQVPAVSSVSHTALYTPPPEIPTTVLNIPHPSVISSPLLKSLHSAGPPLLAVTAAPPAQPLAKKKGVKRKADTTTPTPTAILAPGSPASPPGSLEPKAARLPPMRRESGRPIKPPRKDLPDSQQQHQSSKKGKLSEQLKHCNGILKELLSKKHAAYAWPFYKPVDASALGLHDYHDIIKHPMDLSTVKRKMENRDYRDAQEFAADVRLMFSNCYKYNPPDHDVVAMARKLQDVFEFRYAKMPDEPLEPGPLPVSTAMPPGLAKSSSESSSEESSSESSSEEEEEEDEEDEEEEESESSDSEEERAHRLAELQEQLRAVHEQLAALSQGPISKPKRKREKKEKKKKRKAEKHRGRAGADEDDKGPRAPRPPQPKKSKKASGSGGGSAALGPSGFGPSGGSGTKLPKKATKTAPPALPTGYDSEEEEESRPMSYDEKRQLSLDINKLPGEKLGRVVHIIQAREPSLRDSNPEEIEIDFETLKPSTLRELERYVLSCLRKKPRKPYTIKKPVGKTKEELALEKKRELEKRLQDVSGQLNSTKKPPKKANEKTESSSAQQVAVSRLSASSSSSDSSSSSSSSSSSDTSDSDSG

CLH [1]: 14.88 mL/min/g
IC50 [2]: 20 nM
IC50 (THP-1): 158 nM
Kd [3]: 10 nM
Kd [4]: 6310 nM
IC50 (Blood [5]): 3550 nM
Kd [6]: 15800 nM
Kd [7]: 20000 nM
Kd [8]: 3.98 nM
IC50 (Blood [9]): 670 nM
Kd [10]: 398 nM
Kd [11]: 25100 nM
Kd [12]: 20 nM
Kd [14]: > 31600 nM
Kd [16]: 20 nM
Kd [17]: 15.8 nM
IC50 [18]: 10000 nM
SMILES: Cc1cc2c(-c3ccco3)cnc(N[C@@H]3CCN(C)C[C@H]3C(=O)NC3CCCCC3)c2[nH]c1=O [GSK789]
Activity (B cell [13]): Active
Activity (B cell [15]): Active
